*1 amine or outer side, *2 acyl side, *3 side chain or, on linkers, in order; H or OH if unused. Where a SMILES comes first, the peptide text is derived from it. Bridges are numbered along the chain shown (N, C = ends). [ ]: non-standard residue; d: D form. The star is where a group is joined. ξ: configuration not given here. Phe(4-CH2CH2COOH) = N[C@@H](Cc1ccc(CCC(=O)O)cc1)C(=O)O; Phe(3-CF3) = N[C@@H](Cc1cccc(C(F)(F)F)c1)C(=O)O; Ala(morpholin-4-yl) = N[C@@H](CN1CCOCC1)C(=O)O; Phe(4-COOH) = N[C@@H](Cc1ccc(C(=O)O)cc1)C(=O)O; Bip = N[C@@H](Cc1ccc(-c2ccccc2)cc1)C(=O)O; NH(CH2)14COOH = O=C(O)CCCCCCCCCCCCCCN*; Phe(3-Me) = Cc1cccc(C[C@H](N)C(=O)O)c1; γGlu = O=C(O)[C@H](CCC(=O)[*:2])N[*:1]; NH(CH2)12COOH = O=C(O)CCCCCCCCCCCCN*; NMeAEEA = CN(CCOCCOCC(=O)[*:2])[*:1]; Val(3-OH) = CC(C)(O)[C@H](N)C(=O)O; aIle = CC[C@@H](C)[C@H](N)C(=O)O; 4Pal = N[C@@H](Cc1ccncc1)C(=O)O; Aad = N[C@@H](CCCC(=O)O)C(=O)O; Cha = N[C@@H](CC1CCCCC1)C(=O)O; Cit = NC(=O)NCCC[C@H](N)C(=O)O; Thr(3ξ) = CC(O)[C@H](N)C(=O)O; 12Ado = NCCCCCCCCCCCC(=O)O; Carboxymethyl = O=C(O)C*; NMeA = CN[C@@H](C)C(=O)O; Orn = NCCC[C@H](N)C(=O)O; Aun = NCCCCCCCCCCC(=O)O; Dab = NCC[C@H](N)C(=O)O; AEEA = NCCOCCOCC(=O)O; Piv = CC(C)(C)C(=O)*
Target: T1, PD-1/PD-L1 interaction (PE-labeled human PD-L1-Ig binding to Jurkat cell line over-expressing human PD-1) (Homo sapiens, UniProt Q15116)
T1 construct: expressed in transfected cells; host or cells: Jurkat
T1 sequence (Q15116 25-288): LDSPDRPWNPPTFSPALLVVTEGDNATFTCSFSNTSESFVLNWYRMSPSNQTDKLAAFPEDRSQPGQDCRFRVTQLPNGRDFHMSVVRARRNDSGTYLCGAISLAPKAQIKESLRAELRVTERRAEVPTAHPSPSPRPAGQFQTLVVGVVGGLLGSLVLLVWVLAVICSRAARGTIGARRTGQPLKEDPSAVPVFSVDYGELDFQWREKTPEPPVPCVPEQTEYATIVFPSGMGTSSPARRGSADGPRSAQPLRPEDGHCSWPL
Test: Jurkat-PD-1 Cell Binding High-Content Screening Assay (CBA)
Settings: Jurkat-hPD-1 cells, PE-labeled PD-L1-Ig 20 nM final; read-out: Jurkat HPD1 PDL1 IC50
Outline: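 Jurkat cells overexpressing human PD-1 (8×10^3/well, DMEM + 10% FCS) preincubated with compound 2 h at 37 °C, then PE-labelled human PD-L1-Ig (20 nM final) for 1 h. Cells fixed in paraformaldehyde with Hoechst 33342; bound PD-L1 quantified by high-content imaging.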

IC50 | Compound
15.7 nM | Cc1cccc(C[C@@H]2NC(=O)[C@H](CC(=O)O)NC(=O)[C@H](Cc3ccc(OCC(=O)O)cc3)NC(=O)[C@H](C(C)O)NC(=O)CSC[C@@H](C(=O)N[C@@H](CCCN)C(=O)N[C@@H](CO)C(=O)NCCCCCCCCCCCC(=O)O)NC(=O)[C@H](CO)NC(=O)[C@H](C(C)(C)O)NC(=O)[C@H](CC3CCCCC3)NC(=O)[C@H](CCN)NC(=O)[C@@H](CC(C)C)NC(=O)[C@H](C)N(C)C(=O)[C@H](CCCNC(N)=O)NC(=O)[C@H](Cc3ccc(-c4ccccc4)cc3)NC(=O)[C@H](C(C)C)NC2=O)c1 (stereo partly drawn) [Example 2394] ({CH2CO}-[Thr(3ξ)]Y(Carboxymethyl)D[Phe(3-Me)]V[Bip][Cit][NMeA][dL][Dab][Cha][Val(3-OH)]SC[Orn]S[12Ado]-OH; thioether N-14)
28 nM | Cc1cccc(C[C@@H]2NC(=O)[C@H](CC(=O)O)NC(=O)[C@H](Cc3ccc(OCC(=O)O)cc3)NC(=O)[C@H]([C@@H](C)O)NC(=O)CSC[C@@H](C(=O)N[C@@H](CCCN)C(=O)NCCOCCOCC(=O)NCCCCCCCCCCC(=O)O)NC(=O)[C@H](CO)NC(=O)[C@H](C(C)C)NC(=O)[C@H](CC3CCCCC3)NC(=O)[C@H](CCN)NC(=O)[C@@H](CC(C)C)NC(=O)[C@H](C)N(C)C(=O)[C@H](Cc3ccc(OCC(=O)O)cc3)NC(=O)[C@H](Cc3ccc(-c4ccccc4)cc3)NC(=O)[C@H](Cc3ccc(OCC(=O)O)cc3)NC2=O)c1 [Example 1372] ({CH2CO}-TY(Carboxymethyl)D[Phe(3-Me)]Y(Carboxymethyl)[Bip]Y(Carboxymethyl)[NMeA][dL][Dab][Cha]VSC[Orn][AEEA][Aun]-OH; thioether N-14)
43.9 nM | CC[C@@H](C)[C@@H]1NC(=O)[C@H](Cc2ccc(-c3ccccc3)cc2)NC(=O)[C@H](C(C)C)NC(=O)[C@H](Cc2c[nH]c3ccccc23)NC(=O)[C@H](CC(=O)O)NC(=O)[C@H](Cc2ccc(O)cc2)NC(=O)[C@H](Cc2ccncc2)NC(=O)CSC[C@@H](C(=O)N[C@@H](CCN)C(=O)NCCCCCCCCCCC(=O)O)NC(=O)[C@H](C(C)O)NC(=O)[C@H](C(C)C)NC(=O)[C@H](CC2CCCCC2)NC(=O)[C@H](CCN)NC(=O)[C@@H](CC(C)C)NC(=O)[C@H](C)N(C)C1=O (stereo partly drawn) [Example 2036] ({CH2CO}-[4Pal]YDWV[Bip][aIle][NMeA][dL][Dab][Cha]V[Thr(3ξ)]C[Dab][Aun]-OH; thioether N-14)
44 nM | CC(C)C[C@H]1NC(=O)[C@H](C)N(C)C(=O)[C@H](CCC(N)=O)NC(=O)[C@H](Cc2ccc(-c3ccccc3)cc2)NC(=O)[C@H](Cc2ccc(C(=O)O)cc2)NC(=O)[C@H](Cc2cccc(C(F)(F)F)c2)NC(=O)[C@H](CC(=O)O)NC(=O)[C@H](Cc2ccc(OCC(=O)O)cc2)NC(=O)[C@H](Cc2ccc(C(=O)O)cc2)NC(=O)CSC[C@@H](C(=O)N[C@@H](CCN)C(=O)NCCOCCOCC(=O)N[C@@H](CCC(=O)NCCOCCOCC(=O)NCCCCCCCCCCCCC(=O)O)C(=O)O)NC(=O)[C@H](CO)NC(=O)[C@H](C(C)(C)O)NC(=O)[C@H](CC2CCCCC2)NC(=O)[C@H](CCN)NC1=O [Example 1184] ({CH2CO}-[Phe(4-COOH)]Y(Carboxymethyl)D[Phe(3-CF3)][Phe(4-COOH)][Bip]Q[NMeA][dL][Dab][Cha][Val(3-OH)]SC[Dab][AEEA][γGlu][AEEA]-{NH(CH2)12COOH}; thioether N-14)
20.1 nM | Cc1cccc(C[C@@H]2NC(=O)[C@H](CC(=O)O)NC(=O)[C@H](Cc3ccc(C(=O)O)cc3)NC(=O)[C@H](Cc3ccc(OCC(=O)O)cc3)NC(=O)CSC[C@@H](C(=O)N[C@@H](CCC(=O)O)C(=O)NCCCCCCCCCCC(=O)O)NC(=O)[C@H](CO)NC(=O)[C@H](C(C)C)NC(=O)[C@H](CC(C)C)NC(=O)[C@H](CC(N)=O)NC(=O)[C@@H](CC(C)C)NC(=O)[C@H](C)N(C)C(=O)[C@H](C(C)C)NC(=O)[C@H](Cc3ccc(-c4ccccc4)cc3)NC(=O)[C@H](CC(C)C)NC2=O)c1 [Example 1003] ({CH2CO}-Y(Carboxymethyl)[Phe(4-COOH)]D[Phe(3-Me)]L[Bip]V[NMeA][dL]NLVSCE[Aun]-OH; thioether N-14)
19.2 nM | Cc1cccc(C[C@@H]2NC(=O)[C@H](CC(=O)O)NC(=O)[C@H](Cc3ccc(CCC(=O)O)cc3)NC(=O)[C@H](CCNC(=O)C(C)(C)C)NC(=O)CSC[C@@H](C(=O)N[C@@H](CCN)C(=O)NCCCCCCCCCCC(=O)O)NC(=O)[C@H]([C@@H](C)O)NC(=O)[C@H](C(C)C)NC(=O)[C@H](CC3CCCCC3)NC(=O)[C@H](CCN)NC(=O)[C@@H](CC(C)C)NC(=O)[C@H](C)N(C)C(=O)[C@H](Cc3ccc(OCC(=O)O)cc3)NC(=O)[C@H](Cc3ccc(-c4ccccc4)cc3)NC(=O)[C@H](Cc3ccc(C(=O)O)cc3)NC2=O)c1 [Example 1269] ({CH2CO}-[Dab](Piv)[Phe(4-CH2CH2COOH)]D[Phe(3-Me)][Phe(4-COOH)][Bip]Y(Carboxymethyl)[NMeA][dL][Dab][Cha]VTC[Dab][Aun]-OH; thioether N-14)
765 nM | Cc1cccc(C[C@@H]2NC(=O)[C@H](CC(=O)O)NC(=O)[C@H](Cc3cnc[nH]3)NC(=O)[C@H](Cc3ccc(OCC(=O)O)cc3)NC(=O)CSC[C@@H](C(=O)NCCCCCCCCCCC(=O)O)NC(=O)[C@H](CCC(=O)O)NC(=O)[C@H](C(C)C)NC(=O)[C@H](CC3CCCCC3)NC(=O)[C@H](CCN)NC(=O)[C@@H](CC(C)C)NC(=O)[C@H](C)N(C)C(=O)[C@H](Cc3ccc(O)cc3)NC(=O)[C@H](Cc3ccc(-c4ccccc4)cc3)NC(=O)[C@H](CCC(N)=O)NC2=O)c1 [Example 2258] ({CH2CO}-Y(Carboxymethyl)HD[Phe(3-Me)]Q[Bip]Y[NMeA][dL][Dab][Cha]VEC[Aun]-OH; thioether N-14)
16.4 nM | Cc1cccc(C[C@@H]2NC(=O)[C@H](CC(=O)O)NC(=O)[C@H](Cc3ccc(C(=O)O)cc3)NC(=O)[C@H](CCN)NC(=O)CSC[C@@H](C(=O)N[C@@H](CCN)C(=O)NCCCCCCCCCCC(=O)O)NC(=O)[C@H](CO)NC(=O)[C@H](C(C)(C)O)NC(=O)[C@H](CC3CCCCC3)NC(=O)[C@H](CCN)NC(=O)[C@@H](CC(C)C)NC(=O)[C@H](C)N(C)C(=O)[C@H](Cc3ccc(OCC(=O)O)cc3)NC(=O)[C@H](Cc3ccc(-c4ccccc4)cc3)NC(=O)[C@H](CCCC(=O)O)NC2=O)c1 [Example 1298] ({CH2CO}-[Dab][Phe(4-COOH)]D[Phe(3-Me)][Aad][Bip]Y(Carboxymethyl)[NMeA][dL][Dab][Cha][Val(3-OH)]SC[Dab][Aun]-OH; thioether N-14)
20.5 nM | CC(C)C[C@H]1NC(=O)[C@H](C)N(C)C(=O)[C@H](CCC(N)=O)NC(=O)[C@H](Cc2ccc(-c3ccccc3)cc2)NC(=O)[C@H](Cc2ccc(C(=O)O)cc2)NC(=O)[C@H](Cc2cccc(C(F)(F)F)c2)NC(=O)[C@H](CC(=O)O)NC(=O)[C@H](Cc2ccc(OCC(=O)O)cc2)NC(=O)[C@H](CN2CCOCC2)NC(=O)CSC[C@@H](C(=O)N[C@@H](CCN)C(=O)NCCCCCCCCCCCCC(=O)O)NC(=O)[C@H](Cc2c[nH]cn2)NC(=O)[C@H](C(C)(C)O)NC(=O)[C@H](CC2CCCCC2)NC(=O)[C@H](CCN)NC1=O [Example 1188] ({CH2CO}-[Ala(morpholin-4-yl)]Y(Carboxymethyl)D[Phe(3-CF3)][Phe(4-COOH)][Bip]Q[NMeA][dL][Dab][Cha][Val(3-OH)]HC[Dab]-{NH(CH2)12COOH}; thioether N-14)
45.3 nM | Cc1cccc(C[C@@H]2NC(=O)[C@H](CC(=O)O)NC(=O)[C@H](Cc3ccc(OCC(=O)O)cc3)NC(=O)[C@H](C(C)O)NC(=O)CSC[C@@H](C(=O)N(C)CCOCCOCC(=O)NCCCCCCCCCCC(=O)O)NC(=O)[C@H](C(C)C)NC(=O)[C@H](C(C)C)NC(=O)[C@H](CC3CCCCC3)NC(=O)[C@H](CCN)NC(=O)[C@@H](CC(C)C)NC(=O)[C@H](C)N(C)C(=O)[C@H](CCCNC(N)=O)NC(=O)[C@H](Cc3ccc(-c4ccccc4)cc3)NC(=O)[C@H](C(C)C)NC2=O)c1 (stereo partly drawn) [Example 2355] ({CH2CO}-[Thr(3ξ)]Y(Carboxymethyl)D[Phe(3-Me)]V[Bip][Cit][NMeA][dL][Dab][Cha]VVC[NMeAEEA][Aun]-OH; thioether N-14)

Same assay, conditions: PE-labeled PD-L1-Ig 20 nM final, Jurkat-hPD-1 cells; read-out: Jurkat HPD1 PDL1 IC50

IC50 | Compound
25.5 nM | CC(C)C[C@@H]1NC(=O)[C@H](Cc2c[nH]c3ccccc23)NC(=O)[C@H](CC(=O)O)NC(=O)[C@H](Cc2ccc(C(=O)O)cc2)NC(=O)[C@H](Cc2ccc(OCC(=O)O)cc2)NC(=O)CSC[C@@H](C(=O)NCCOCCOCC(=O)NCCCCCCCCCCC(=O)O)NC(=O)[C@H](Cc2cnc[nH]2)NC(=O)[C@H](C(C)O)NC(=O)[C@H](CC2CCCCC2)NC(=O)[C@H](CCN)NC(=O)[C@@H](CC(C)C)NC(=O)[C@H](C)N(C)C(=O)[C@H](C(C)C)NC(=O)[C@H](Cc2ccc(-c3ccccc3)cc2)NC1=O (stereo partly drawn) [Example 2435] ({CH2CO}-Y(Carboxymethyl)[Phe(4-COOH)]DWL[Bip]V[NMeA][dL][Dab][Cha][Thr(3ξ)]HC[AEEA][Aun]-OH; thioether N-14)
247 nM | CC(C)C[C@H]1NC(=O)[C@H](C)N(C)C(=O)[C@H](CCC(N)=O)NC(=O)[C@H](Cc2ccc(-c3ccccc3)cc2)NC(=O)[C@H](Cc2ccc(OCC(=O)O)cc2)NC(=O)[C@H](Cc2cccc(C(F)(F)F)c2)NC(=O)[C@H](CC(=O)O)NC(=O)[C@H](Cc2ccc(OCC(=O)O)cc2)NC(=O)[C@H](C)NC(=O)CSC[C@@H](C(=O)N[C@@H](CCN)C(=O)NCCOCCOCC(=O)NCCOCCOCC(=O)N[C@H](CCC(=O)NCCCCCCCCCCCCCCC(=O)O)C(=O)O)NC(=O)[C@H](Cc2cnc[nH]2)NC(=O)[C@H](C(C)(C)O)NC(=O)[C@H](CC2CCCCC2)NC(=O)[C@H](CCN)NC1=O [Example 2628] ({CH2CO}-AY(Carboxymethyl)D[Phe(3-CF3)]Y(Carboxymethyl)[Bip]Q[NMeA][dL][Dab][Cha][Val(3-OH)]HC[Dab][AEEA][AEEA][dE](NH(CH2)14COOH)-OH; thioether N-14)
